Source: ChEMBL document CHEMBL3137667, “[Drug-induced liver injury; fourteenth updated edition of the bibliographic database of liver injuries and related drugs]” (Gastroenterol Clin Biol, 2004)

How the values were obtained:
[1] = human
[2] = Highest frequency of moderate liver toxicity observed during clinical trials, expressed as a percentage. [column '% BIOL' in source]; settings: human
[3] = human; remark: listed apart in the source
[4] = human; remark: listed apart in the source
[5] = human; remark: listed apart in the source
[6] = human, serum, 4383 h
[7] = human; remark: listed apart in the source
[8] = human, serum
[9] = human; remark: listed apart in the source
[10] = human; remark: listed apart in the source
[11] = human, serum; remark: listed apart in the source
[12] = human; remark: listed apart in the source
[13] = Highest frequency of acute liver toxicity observed during clinical trials, expressed as a percentage. [column '% AIGUE' in source]; settings: human
[14] = Times to onset, minimal and maximal, observed in the indexed observations. [column 'DELAI' in source]; settings: human
[15] = human; remark: listed apart in the source
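For Hepatotoxicity (association with vascular disease) in this document: count of indexed literature references reporting vascular liver injury in humans, e.g. peliosis hepatitis, hepatic veno-occlusive disease or Budd-Chiari syndrome.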
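For Hepatotoxicity (benign tumour) in this document: value is a count of indexed literature references citing a benign tumour confirmed by histopathology.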
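For Hepatotoxicity (choleostasis) in this document: human cholestatic liver injury, shown by histopathology or by peak ALT or AST elevation over alkaline phosphatase ratio below 2, value counts indexed literature reports.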
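For Hepatotoxicity (chronic liver disease) in this document: chronic liver injury confirmed by histopathology or persistently raised serum aminotransferase activity beyond 6 months, value given as the count of indexed literature references.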
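For Hepatotoxicity (cirrhosis) in this document: value is a count of indexed literature references reporting cirrhosis confirmed by histopathology.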
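For Hepatotoxicity (cytolytic) in this document: human cytolytic liver injury, shown by histopathology or by a ratio above 5 of peak ALT or AST elevation to alkaline phosphatase elevation, value counts indexed references.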
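For Hepatotoxicity (granulomatous hepatitis) in this document: value is a count of indexed literature references reporting granulomatous liver disease confirmed by histopathology.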
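For Hepatotoxicity (malignant tumour) in this document: malignant tumour confirmed by histopathology, value gives the count of indexed literature references reporting it.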
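For Hepatotoxicity (severe hepatitis) in this document: human clinical data: severe hepatitis, meaning potentially life-threatening liver failure or clinically observed cases, the value counts how many indexed literature references report it.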
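For Hepatotoxicity (steatosis) in this document: steatosis confirmed by histopathology, value is the count of indexed references.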

Row | SMILES | Hepatotoxicity (association with vascular disease) [1] | Hepatotoxicity (moderate) [2] [%] | Hepatotoxicity (granulomatous hepatitis) [3] | Hepatotoxicity (benign tumour) [4] | Hepatotoxicity (severe hepatitis) [5] | Hepatotoxicity (chronic liver disease) [6] | Hepatotoxicity (choleostasis) [7] | Hepatotoxicity (acute) [8] | Hepatotoxicity (steatosis) [9] | Hepatotoxicity (cirrhosis) [10] | Hepatotoxicity (moderate) [11] | Hepatotoxicity (malignant tumour) [12] | Hepatotoxicity (acute) [13] [%] | Hepatotoxicity (time to onset) [14] | Hepatotoxicity (cytolytic) [15]
1 | CC(=O)O[C@@]12CO[C@@H]1C[C@H](O)[C@@]1(C)C(=O)[C@H](O)C3=C(C)[C@@H](OC(=O)[C@H](O)[C@@H](NC(=O)OC(C)(C)C)c4ccccc4)C[C@@](O)([C@@H](OC(=O)c4ccccc4)[C@H]21)C3(C)C.O.O.O [DOCETAXEL] | 0 | 20 | 0 | 0 | 1 | 0 | 1 | 4 | 0 | 0 | 3 | 0 | 14.3 | 3 days - 8 days | 2
2 | O=c1[nH]c2ccccc2n1CCCN1CCC(n2c(=O)[nH]c3cc(Cl)ccc32)CC1 [DOMPERIDONE] | 0 | 0 | 0 | 0 | 0 | 0 | 0 | 1 | 0 | 0 | 0 | 0 | 0 | < 1 week | 1
3 | CN1c2c(oc(=O)n(-c3ccccn3)c2=O)-c2ccccc2S1(=O)=O [DROXICAM] | 0 | 0 | 1 | 0 | 0 | 0 | 6 | 7 | 0 | 0 | 0 | 0 | > 0 | 10 days - 7 weeks | 4
4 | CS[C@H]1SC[C@H]2C(=O)N(C)[C@@H](C(C)C)C(=O)OC[C@@H](NC(=O)c3cnc4ccccc4n3)C(=O)N[C@@H](C)C(=O)N(C)[C@@H]1C(=O)N(C)[C@@H](C(C)C)C(=O)OC[C@@H](NC(=O)c1cnc3ccccc3n1)C(=O)N[C@@H](C)C(=O)N2C [ECHINOMYCIN] | 0 | 29.4 | 0 | 0 | 1 | 0 | 0 | 4 | 0 | 0 | 8 | 0 | 4.8 | 4 days - 19 days | 3
5 | Clc1ccc(COC(Cn2ccnc2)c2ccc(Cl)cc2Cl)cc1 (stereo not given) [ECONAZOLE] | 0 | 0 | 0 | 0 | 0 | 0 | 0 | 1 | 0 | 0 | 1 | 0 | 0 | 4 months | 0
